Assay: DPPH radical scavenging antioxidant test
Format: biochemical
Details: 517 nm; for Inhibition (radical scavenging inhibition): compound 3 μM in ethanol, 0.2 mL DPPH (0.75 mM), 30 min incubation in the dark
Protocol: The antioxidant properties of the 8-(3-bromobenzylideneamino)naphthalene-1,3-disulfonic acid were studied by adding 0.2 mL DPPH (0.75 mM)) to compound 8-(3-bromobenzylideneamino)naphthalene-1,3-disulfonic acid (III) (3 μM) in ethanol. After 30 min of incubation in the dark, the absorbance was read against a blank at 517 nm. Ascorbic acid (vitamin C) was used as standard antioxidants (positive control). A blank sample was prepared by 0.2 ml of DPPH in 3 ml ethanol. A negative control sample was run using ethanol instead of the sample. The radical scavenging inhibition was calculated using the following equation: […]

SMILES | Inhibition (radical scavenging inhibition) | antioxidant potential in DPPH test compared to vitamin C (in words) (DPPH in vitro test, vitamin C as positive control)
O=C1O[C@H]([C@@H](O)CO)C(O)=C1O [vit c, Ascorbic acid, reference compound] | 74% | –
O=S(=O)(O)c1cc(S(=O)(=O)O)c2c(/N=C/c3cccc(Br)c3)cccc2c1 [Product III, 8-(3-bromobenzylideneamino)naphthalene-1,3-disulfonic acid] | 50% | high potential as an antioxidant compared to vitamin C

Reference: patent publication US11932593B1, “8-(3-bromobenzylideneamino)naphthalene-1,3-disulfonic acid as an antioxidant compound” (KING FAISAL UNIVERSITY, priority 2023, dated 2024)
